Literature values as cited in US11839666B2, “Oral care article comprising a hydrophobic delivery carrier and solid hydrophilic particles comprising an agent” (The Procter & Gamble Company, priority 2020, dated 2023).
Where two headings read alike, the source gives them in different places.

Settings: at 20 C

NC(N)=O.OO [Urea Hydrogen Peroxide Adduct]
Solubility in water (per Safety Data Sheet from supplier): 800 grams per liter | Solubility in water (restated from Safety Data Sheet value): 80 parts per 100 parts of water
